Data published in patent US10201510B2, “Compositions and methods for treatment of neurological symptoms associated with alcohol-withdrawal and for convulsive seizure” (Oregon Health & Science University, priority 2005, dated 2019).

Tests used:
[1] = tested on: withdrawal seizures in alcohol-dependent mice; assay: Predicted anti-seizure activity; assay type: in vivo, mouse; set-up: key: la = long-acting; The ++ farnesol activity was arbitrary; details: duration flag in brackets
[2] = target: T1, L-type Ca^2+ channel (Mus musculus, UniProt Q01815); assay: Reversibility of inhibition of L-type Ca^2+ channel mediated arterial contraction after wash-out
T1 construct: KCl-induced contraction in isolated arteries; from tissue; host or cells: mouse mesenteric arteries
Experimental: (§1) Contractions obtained after 30 min. incubation with the test compounds (left portion of graph), and after a 60-min. wash-out (right portion of graph).
Moreover, farnesylamine is likely to be metabolized through pathways different from those involved in farnesol clearance.

[3] = target: T2, neuronal voltage-gated, L-type (Cav1.3) α1D subunit Ca^2+ channel (Rattus norvegicus, UniProt P27732); assay: KCl-induced Ca^2+ signaling in fura-2 loaded PC12 cells; assay type: cell-based; details: non-NGF PC12 cells, fura-2; FIG. 1 / FIG. 3
T2 construct: KCl-induced intracellular Ca^2+ signaling in non-NGF treated PC12 cells loaded with fura-2; endogenous in cells; host or cells: PC12 cells (non-NGF treated)
T2 sequence (P27732 whole entry): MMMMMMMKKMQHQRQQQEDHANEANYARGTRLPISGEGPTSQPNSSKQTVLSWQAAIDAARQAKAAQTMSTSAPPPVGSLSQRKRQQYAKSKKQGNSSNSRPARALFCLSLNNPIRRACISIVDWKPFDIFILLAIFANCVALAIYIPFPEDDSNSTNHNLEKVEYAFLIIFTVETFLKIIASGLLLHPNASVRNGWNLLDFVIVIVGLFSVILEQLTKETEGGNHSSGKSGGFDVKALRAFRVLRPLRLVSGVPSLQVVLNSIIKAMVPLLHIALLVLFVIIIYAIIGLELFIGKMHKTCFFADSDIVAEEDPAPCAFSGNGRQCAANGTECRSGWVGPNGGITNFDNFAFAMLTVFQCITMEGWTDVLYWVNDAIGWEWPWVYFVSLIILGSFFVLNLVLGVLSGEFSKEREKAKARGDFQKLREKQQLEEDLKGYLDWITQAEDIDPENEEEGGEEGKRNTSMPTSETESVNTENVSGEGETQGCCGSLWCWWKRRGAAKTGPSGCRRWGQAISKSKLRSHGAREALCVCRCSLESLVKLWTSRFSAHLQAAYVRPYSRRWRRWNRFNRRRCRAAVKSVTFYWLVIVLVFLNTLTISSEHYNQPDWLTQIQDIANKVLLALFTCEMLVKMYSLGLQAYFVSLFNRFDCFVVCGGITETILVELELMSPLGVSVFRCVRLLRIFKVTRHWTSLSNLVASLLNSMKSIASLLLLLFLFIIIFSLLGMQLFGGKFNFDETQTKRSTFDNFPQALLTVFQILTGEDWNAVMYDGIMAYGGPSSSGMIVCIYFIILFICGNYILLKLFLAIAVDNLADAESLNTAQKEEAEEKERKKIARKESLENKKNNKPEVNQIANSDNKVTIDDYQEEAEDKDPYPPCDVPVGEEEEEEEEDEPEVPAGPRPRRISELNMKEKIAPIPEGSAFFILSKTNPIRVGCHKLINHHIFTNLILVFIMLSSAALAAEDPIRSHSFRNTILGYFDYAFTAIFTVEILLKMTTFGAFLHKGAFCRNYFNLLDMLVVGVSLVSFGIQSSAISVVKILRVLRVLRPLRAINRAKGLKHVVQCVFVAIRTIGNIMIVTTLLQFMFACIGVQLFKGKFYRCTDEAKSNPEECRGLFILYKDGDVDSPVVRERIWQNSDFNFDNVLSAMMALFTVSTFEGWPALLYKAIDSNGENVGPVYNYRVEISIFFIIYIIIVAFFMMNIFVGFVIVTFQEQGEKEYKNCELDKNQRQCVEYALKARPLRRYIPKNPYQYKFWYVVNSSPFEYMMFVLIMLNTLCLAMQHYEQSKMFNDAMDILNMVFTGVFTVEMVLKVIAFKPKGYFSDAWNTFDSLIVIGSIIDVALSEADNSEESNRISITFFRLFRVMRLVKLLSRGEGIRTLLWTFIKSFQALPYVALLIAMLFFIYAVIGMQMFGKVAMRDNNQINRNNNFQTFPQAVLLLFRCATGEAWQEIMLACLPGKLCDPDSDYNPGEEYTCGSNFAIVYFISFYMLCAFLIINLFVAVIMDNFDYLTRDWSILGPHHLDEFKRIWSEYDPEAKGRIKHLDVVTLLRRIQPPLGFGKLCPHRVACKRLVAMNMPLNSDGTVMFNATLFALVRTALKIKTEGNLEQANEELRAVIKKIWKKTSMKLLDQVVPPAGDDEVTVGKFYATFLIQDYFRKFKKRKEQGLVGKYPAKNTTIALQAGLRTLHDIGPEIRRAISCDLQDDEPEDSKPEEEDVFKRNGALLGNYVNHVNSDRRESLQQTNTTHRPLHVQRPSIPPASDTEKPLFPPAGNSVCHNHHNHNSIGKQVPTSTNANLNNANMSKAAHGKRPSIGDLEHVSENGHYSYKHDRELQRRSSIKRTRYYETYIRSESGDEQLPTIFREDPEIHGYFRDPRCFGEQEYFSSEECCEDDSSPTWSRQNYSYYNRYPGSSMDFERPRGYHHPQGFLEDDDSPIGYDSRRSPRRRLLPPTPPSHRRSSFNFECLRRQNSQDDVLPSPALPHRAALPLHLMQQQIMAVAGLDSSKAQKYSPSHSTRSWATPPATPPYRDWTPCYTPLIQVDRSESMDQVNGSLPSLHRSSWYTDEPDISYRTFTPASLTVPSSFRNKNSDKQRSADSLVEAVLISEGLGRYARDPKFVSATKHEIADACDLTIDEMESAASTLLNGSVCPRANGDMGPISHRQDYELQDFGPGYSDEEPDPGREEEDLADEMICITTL
T2 sequence (P54290 25-944 partner limits assumed): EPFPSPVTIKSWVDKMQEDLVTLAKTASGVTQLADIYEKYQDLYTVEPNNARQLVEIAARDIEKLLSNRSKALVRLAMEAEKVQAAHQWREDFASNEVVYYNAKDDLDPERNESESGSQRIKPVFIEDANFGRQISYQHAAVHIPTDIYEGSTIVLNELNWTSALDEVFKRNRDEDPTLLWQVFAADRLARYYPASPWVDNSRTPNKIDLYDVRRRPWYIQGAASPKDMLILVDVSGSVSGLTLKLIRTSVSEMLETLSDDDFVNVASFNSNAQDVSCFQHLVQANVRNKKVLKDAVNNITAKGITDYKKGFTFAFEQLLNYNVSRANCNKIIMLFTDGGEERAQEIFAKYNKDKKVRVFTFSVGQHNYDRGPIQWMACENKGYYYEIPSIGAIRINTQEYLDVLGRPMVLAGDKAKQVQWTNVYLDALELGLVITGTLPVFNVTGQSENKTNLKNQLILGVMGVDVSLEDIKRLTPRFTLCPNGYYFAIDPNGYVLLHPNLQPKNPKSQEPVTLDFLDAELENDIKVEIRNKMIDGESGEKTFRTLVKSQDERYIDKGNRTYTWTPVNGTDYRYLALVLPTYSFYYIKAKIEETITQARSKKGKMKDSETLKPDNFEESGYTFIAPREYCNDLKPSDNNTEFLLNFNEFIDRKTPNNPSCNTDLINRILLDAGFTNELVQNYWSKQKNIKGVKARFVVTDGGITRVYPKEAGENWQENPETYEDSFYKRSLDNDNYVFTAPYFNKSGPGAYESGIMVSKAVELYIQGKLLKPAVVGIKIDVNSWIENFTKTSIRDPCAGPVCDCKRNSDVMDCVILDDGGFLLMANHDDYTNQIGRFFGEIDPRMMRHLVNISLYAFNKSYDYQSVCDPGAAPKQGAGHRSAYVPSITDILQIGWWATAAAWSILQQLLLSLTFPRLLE
T2 sequence (P54290 945-1091 partner limits assumed): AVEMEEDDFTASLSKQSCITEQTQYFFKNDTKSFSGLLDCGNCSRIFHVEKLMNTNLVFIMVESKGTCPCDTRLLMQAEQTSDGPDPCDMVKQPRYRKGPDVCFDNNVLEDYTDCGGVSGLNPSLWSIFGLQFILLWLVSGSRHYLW
Excerpt: According to particular aspects of the present invention, the alcohol group is essential for activity. Additionally, the activity of farnesol metabolites on neuronal voltage-gated L-type Ca^2+ channels was investigated. […] The Ca^2+ channel activity is expressed as % inhibition of KCl-induced intracellular Ca^2+ signaling in non-NGF differentiated PC12 cells loaded with fura-2 (see Materials and Methods under Example 2). The assayed molecules are: FPP—farnesyl pyrophosphate; FOH—all-trans farnesol; FCHO—all-trans farnesal; and FCOOH—all-trans farnesoic acid (prepared by Dr. McDougal).
(§2) To identify compounds with enhanced L-type Ca^2+ channel blocker activity, several compounds were either purchased or synthesized, and then tested for their ability to inhibit: (1) KCl-induced contraction in isolated arteries; (2) KCl-induced Ca^2+ signaling in fura-2 loaded arteries; and (3) KCl-induced Ca^2+ signaling in fura-2 loaded PC12 cells, all using art-recognized methods established in the applicants' laboratories (Roullet, 1993, 1994, 1995, 1997; De Lima, 1999). Arteries express smooth muscle voltage-gated, L-type (Cav1.2 or α1C subunit) Ca^2+ channels, whereas PC12 cells constitutively express the neuronal voltage-gated, L-type (Cav1.3) α1D subunit (Ertel, 2000).
Ca^2+ channel activity is expressed as % inhibition of KCl-induced intracellular Ca^2+ signaling in non-NGF treated PC12 cells loaded with fura-2.

[4] = target: T3, smooth muscle voltage-gated, L-type (Cav1.2 or α1C subunit) Ca^2+ channels (Mus musculus, UniProt Q01815); assay: KCl-induced contraction in isolated arteries; details: FIG. 5 / FIG. 6 (25 μM)
T3 construct: KCl-induced contraction in isolated arteries; from tissue; host or cells: mouse mesenteric arteries
Experimental: as §1, §2

[5] = Storage stability; assay type: physicochemical; details: −20° C., pure form or ethanol solutions (typically 25 mM)
Experimental: According to the present invention, the synthesis of geranylresorcinol (GR) (4) is based on the condensation of geranyl bromide (1) and 3-hydroxyphenyl benzoate (2), followed by alkaline cleavage of the formed ester (3). The method generates pure GR with an overall yield of 40%. The compound is stable when stored at −20° C. either in its pure form or in ethanol solutions (typically prepared at 25 mM). Long-term storage may be associated with some darkening of the product, as typically observed with electron-rich phenols, but it is not associated with significant loss of activity (on arteries).

[6] = tested on: ADH; assay: Metabolism / substrate recognition by ADH; assay type: in vitro ADME
[7] = tested on: microsomal FolDH; assay: Recognition by microsomal FolDH; assay type: in vitro ADME

Structure (SMILES): CC(C)=CCC/C(C)=C/COc1cccc(O)c1 [Geranylresorcinol, (E)-3-(3,7-dimethylocta-2,6-dienyloxy)phenol]
- Predicted anti-seizure activity: long-acting (la) [1]: la
- reversibility of effect compared with farnesol [2]: less reversible
- activity on neuronal L-type Ca^2+ channels compared with all-trans farnesol [3]: strongly inhibits
- activity on KCl-induced arterial contraction [4]: strongly inhibits
- storage stability [5]: stable
- substrate for ADH [6]: very poor substrate for ADH
- recognition by microsomal FolDH [7]: not recognized by microsomal FolDH
